From patent US20220362273A1 (priority 2021, published 2022) come the findings set out here.

Conditions in all cases: mouse, in vivo
The test system of series [1] is iNOS. The arrangement: species or system mice.
The subject of series [2] is NM-challenged skin. Further details: species or system mice.
For series [3], the system named is skin exposed to nitrogen mustard (NM). Further details: species or system C57Bl/6 mice.
The test system of series [4] is mice challenged with topical nitrogen mustard (NM).

Consider `C=C1CC[C@H](O)C/C1=C/C=C1\CCC[C@]2(C)[C@@H]([C@H](C)CCCC(C)(C)O)CC[C@@H]12` [25(OH)D, 25-hydroxyvitamin D3], for which the “iNOS levels (relative iNOS gene expression)” value in series [1] is “responded”.
As for `CC(=O)S[C@@H]1CC2=CC(=O)CC[C@]2(C)[C@H]2CC[C@@]3(C)[C@@H](CC[C@@]34CCC(=O)O4)[C@H]12` [spironolactone], in series [2], the “inflammatory cells in skin” value is “significant reduction” and the skin thickness result is reported as “decrease in thickness”. For the same compound, the “skin thickness by bi-fold caliper measurements” value in series [3] was “showed efficacy in reducing skin thickness”. Further, in series [4], the “lesion area at day 5” value is listed as “reduce lesion area”, the lesion size result is given as “dose dependent reduction” and the systemic toxicity result is given as “sustained systemic toxicity”.
